# How the values were obtained:
# [1] = Metabolic stability in human liver microsomes assessed as parent compound remaining after 10 mins; format: ADME, Microsome; conditions: read-out: Stability
# [2] = AUClast in Balb/c mouse assessed as 6-((5-Fluoropyridin-2-yl)amino)-4-((2-(methylsulfonyl)phenyl)amino)nicotinamide level at 10 mg/kg, po; format: ADME, organism-based; parameters: dose 10 mg/kg, time 0 - last, route oral; conditions: in vivo
# [3] = Cmax in Balb/c mouse assessed as 6-((5-Fluoropyridin-2-yl)amino)-4-((2-(methylsulfonyl)phenyl)amino)nicotinamide level at 3 mg/kg, iv after 1 hr; format: ADME, organism-based; parameters: dose 3 mg/kg, route intravenous; conditions: in vivo
# [4] = Cmax in Balb/c mouse assessed as 6-((5-Fluoropyridin-2-yl)amino)-4-((2-(methylsulfonyl)phenyl)amino)nicotinamide level at 3 mg/kg, iv after 5 hrs; format: ADME, organism-based; parameters: dose 3 mg/kg, route intravenous; conditions: in vivo
# [5] = Drug concentration in Balb/c mouse at 3 mg/kg, iv after 5 hrs; format: ADME, organism-based; conditions: in vivo, read-out: Drug uptake
# [6] = AUClast in Balb/c mouse at 10 mg/kg, po; format: ADME, organism-based; parameters: dose 10 mg/kg, time 0 - last, route oral; conditions: in vivo
# [7] = Oral bioavailability in Balb/c mouse at 10 mg/kg; format: ADME, organism-based; conditions: in vivo
# [8] = Cmax in Balb/c mouse assessed as 6-((5-Fluoropyridin-2-yl)amino)-4-((2-(methylsulfonyl)phenyl)amino)nicotinamide level at 3 mg/kg, iv after 0.05 hrs; format: ADME, organism-based; parameters: dose 3 mg/kg, route intravenous; conditions: in vivo
# [9] = Cmax in Balb/c mouse assessed as 6-((5-Fluoropyridin-2-yl)amino)-4-((2-(methylsulfonyl)phenyl)amino)nicotinamide level at 10 mg/kg, po after 0.05 hrs; format: ADME, organism-based; parameters: dose 10 mg/kg, route oral; conditions: in vivo
# [10] = Clearance in Balb/c mouse at 3 mg/kg, iv; format: ADME, organism-based; conditions: in vivo
# [11] = Cmax in Balb/c mouse assessed as 6-((5-Fluoropyridin-2-yl)amino)-4-((2-(methylsulfonyl)phenyl)amino)nicotinamide level at 10 mg/kg, po after 3 hrs; format: ADME, organism-based; parameters: dose 10 mg/kg, route oral; conditions: in vivo
# [12] = AUClast in Balb/c mouse at 3 mg/kg, iv; format: ADME, organism-based; parameters: dose 3 mg/kg, route intravenous, time 0 - last; conditions: in vivo
# [13] = biological target: Tyrosine-protein kinase JAK1 (Homo sapiens, UniProt P23458); assay: Inhibition of JAK1 JH1 domain (unknown origin)
# [14] = Efflux ratio of permeability in human Caco2; format: ADME, cell-based; conditions: Caco-2
# [15] = biological target: 3',5'-cyclic-AMP phosphodiesterase 4D (Homo sapiens, UniProt Q08499); assay: Inhibition of [3H]cAMP binding to recombinant human His-Tb fused PDE4D2 (86 to 413 residues) expressed in Escherichia coli using [3H]cAMP as substrate preincubated for 10 mins followed by [3H]cAMP addition and measured after 1 hr by scintillation proximity assay
# [16] = biological target: T1, Non-receptor tyrosine-protein kinase TYK2 (Homo sapiens, UniProt P29597); assay: Inhibition of TYK2 JH1 domain (unknown origin)
# T1 sequence (P29597 whole entry, the tested form may be a part): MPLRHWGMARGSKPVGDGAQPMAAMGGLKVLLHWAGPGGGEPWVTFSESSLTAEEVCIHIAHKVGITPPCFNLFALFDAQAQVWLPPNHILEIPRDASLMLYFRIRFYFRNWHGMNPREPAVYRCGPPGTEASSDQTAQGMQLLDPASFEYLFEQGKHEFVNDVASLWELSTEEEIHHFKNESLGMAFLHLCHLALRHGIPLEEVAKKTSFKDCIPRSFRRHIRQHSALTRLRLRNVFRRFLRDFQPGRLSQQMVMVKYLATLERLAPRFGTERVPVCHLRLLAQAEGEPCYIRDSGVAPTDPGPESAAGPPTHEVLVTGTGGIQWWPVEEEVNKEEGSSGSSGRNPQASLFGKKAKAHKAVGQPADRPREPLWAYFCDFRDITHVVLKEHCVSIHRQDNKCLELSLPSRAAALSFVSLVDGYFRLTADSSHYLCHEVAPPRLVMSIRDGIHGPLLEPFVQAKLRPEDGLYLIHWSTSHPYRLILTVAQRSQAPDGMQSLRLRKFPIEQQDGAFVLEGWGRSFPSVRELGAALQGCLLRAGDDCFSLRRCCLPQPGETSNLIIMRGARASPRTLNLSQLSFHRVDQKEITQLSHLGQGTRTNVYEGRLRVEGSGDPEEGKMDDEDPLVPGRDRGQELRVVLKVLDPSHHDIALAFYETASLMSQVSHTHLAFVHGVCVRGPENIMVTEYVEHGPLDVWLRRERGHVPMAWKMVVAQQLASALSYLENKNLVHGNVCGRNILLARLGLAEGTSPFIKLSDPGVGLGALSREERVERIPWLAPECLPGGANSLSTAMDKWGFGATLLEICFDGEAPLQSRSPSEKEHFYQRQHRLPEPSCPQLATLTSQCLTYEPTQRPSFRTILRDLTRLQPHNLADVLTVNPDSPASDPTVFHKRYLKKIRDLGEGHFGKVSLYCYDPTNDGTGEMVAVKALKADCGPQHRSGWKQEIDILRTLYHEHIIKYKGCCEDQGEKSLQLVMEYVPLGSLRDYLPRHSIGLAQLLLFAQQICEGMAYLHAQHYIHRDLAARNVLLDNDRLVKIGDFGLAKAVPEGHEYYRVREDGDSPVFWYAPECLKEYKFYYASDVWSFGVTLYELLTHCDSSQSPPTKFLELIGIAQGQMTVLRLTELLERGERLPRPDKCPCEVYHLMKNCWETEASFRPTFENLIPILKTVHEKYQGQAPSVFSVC
# [17] = Cmax in Balb/c mouse assessed as 6-((5-Fluoropyridin-2-yl)amino)-4-((2-(methylsulfonyl)phenyl)amino)nicotinamide level at 10 mg/kg, po after 0.5 hrs; format: ADME, organism-based; parameters: dose 10 mg/kg, route oral; conditions: in vivo
# [18] = Metabolic stability in rat liver microsomes assessed as parent compound remaining after 10 mins; format: ADME, Microsome; conditions: read-out: Stability
# [19] = Drug concentration in Balb/c mouse at 3 mg/kg, iv after 1 hr; format: ADME, organism-based; conditions: in vivo, read-out: Drug uptake
# [20] = biological target: T1, Non-receptor tyrosine-protein kinase TYK2; assay: Inhibition of fluorescein-labeled kinase tracer binding to His-TVMV-fused TYK2 JH2 domain (575 to 869 residues) (unknown origin) measured after 90 mins by HTRF assay
# [21] = Drug concentration in Balb/c mouse at 10 mg/kg, po after 7 hrs; format: ADME, organism-based; conditions: in vivo, read-out: Drug uptake
# [22] = Cmax in Balb/c mouse assessed as 6-((5-Fluoropyridin-2-yl)amino)-4-((2-(methylsulfonyl)phenyl)amino)nicotinamide level at 10 mg/kg, po after 7 hrs; format: ADME, organism-based; parameters: dose 10 mg/kg, route oral; conditions: in vivo
# [23] = Half life in Balb/c mouse at 3 mg/kg, iv; format: ADME, organism-based; conditions: in vivo
# [24] = Drug concentration in Balb/c mouse at 10 mg/kg, po after 0.05 hrs; format: ADME, organism-based; conditions: in vivo, read-out: Drug uptake
# [25] = biological target: T1, Non-receptor tyrosine-protein kinase TYK2; assay: Inhibition of TYK2 JH2 domain in human whole blood assessed as inhibition of IFNalpha-induced STAT5 phosphorylation preincubated for 1 hr followed by IFNalpha stimulation and measured after 15 mins by fluorescence assay; format: tissue-based
# [26] = Drug concentration in Balb/c mouse at 3 mg/kg, iv after 3 hrs; format: ADME, organism-based; conditions: in vivo, read-out: Drug uptake
# [27] = biological target: Mast/stem cell growth factor receptor Kit (Homo sapiens, UniProt P10721); assay: Inhibition of cKIT (unknown origin)
# [28] = Drug concentration in Balb/c mouse at 10 mg/kg, po after 5 hrs; format: ADME, organism-based; conditions: in vivo, read-out: Drug uptake
# [29] = Cmax in Balb/c mouse assessed as 6-((5-Fluoropyridin-2-yl)amino)-4-((2-(methylsulfonyl)phenyl)amino)nicotinamide level at 10 mg/kg, po after 1 hr; format: ADME, organism-based; parameters: dose 10 mg/kg, route oral; conditions: in vivo
# [30] = Drug concentration in Balb/c mouse at 10 mg/kg, po after 3 hrs; format: ADME, organism-based; conditions: in vivo, read-out: Drug uptake
# [31] = Drug concentration in Balb/c mouse at 10 mg/kg, po after 1 hr; format: ADME, organism-based; conditions: in vivo, read-out: Drug uptake
# [32] = biological target: JAK1/TYK2 (Homo sapiens, UniProt P23458+P29597); assay: Inhibition of TYK2/JAK1 in IFNalpha-stimulated human Kit225 cells by steady-glo luciferase assay
# [33] = Cmax in Balb/c mouse assessed as 6-((5-Fluoropyridin-2-yl)amino)-4-((2-(methylsulfonyl)phenyl)amino)nicotinamide level at 3 mg/kg, iv after 7 hrs; format: ADME, organism-based; parameters: dose 3 mg/kg, route intravenous; conditions: in vivo
# [34] = biological target: JAK3/JAK1 (Homo sapiens, UniProt P23458+P52333); assay: Inhibition of JAK1/JAK3 (unknown origin) in IL-2 stimulated cells by cell based assay
# [35] = AUClast in Balb/c mouse assessed as 6-((5-Fluoropyridin-2-yl)amino)-4-((2-(methylsulfonyl)phenyl)amino)nicotinamide level at 3 mg/kg, iv; format: ADME, organism-based; parameters: dose 3 mg/kg, route intravenous, time 0 - last; conditions: in vivo
# [36] = biological target: Tyrosine-protein kinase JAK2 (Homo sapiens, UniProt O60674); assay: Inhibition of JAK2 JH1 domain (unknown origin)
# Chain of Tyrosine-protein kinase JAK2 (O60674 whole entry, the tested form may be a part): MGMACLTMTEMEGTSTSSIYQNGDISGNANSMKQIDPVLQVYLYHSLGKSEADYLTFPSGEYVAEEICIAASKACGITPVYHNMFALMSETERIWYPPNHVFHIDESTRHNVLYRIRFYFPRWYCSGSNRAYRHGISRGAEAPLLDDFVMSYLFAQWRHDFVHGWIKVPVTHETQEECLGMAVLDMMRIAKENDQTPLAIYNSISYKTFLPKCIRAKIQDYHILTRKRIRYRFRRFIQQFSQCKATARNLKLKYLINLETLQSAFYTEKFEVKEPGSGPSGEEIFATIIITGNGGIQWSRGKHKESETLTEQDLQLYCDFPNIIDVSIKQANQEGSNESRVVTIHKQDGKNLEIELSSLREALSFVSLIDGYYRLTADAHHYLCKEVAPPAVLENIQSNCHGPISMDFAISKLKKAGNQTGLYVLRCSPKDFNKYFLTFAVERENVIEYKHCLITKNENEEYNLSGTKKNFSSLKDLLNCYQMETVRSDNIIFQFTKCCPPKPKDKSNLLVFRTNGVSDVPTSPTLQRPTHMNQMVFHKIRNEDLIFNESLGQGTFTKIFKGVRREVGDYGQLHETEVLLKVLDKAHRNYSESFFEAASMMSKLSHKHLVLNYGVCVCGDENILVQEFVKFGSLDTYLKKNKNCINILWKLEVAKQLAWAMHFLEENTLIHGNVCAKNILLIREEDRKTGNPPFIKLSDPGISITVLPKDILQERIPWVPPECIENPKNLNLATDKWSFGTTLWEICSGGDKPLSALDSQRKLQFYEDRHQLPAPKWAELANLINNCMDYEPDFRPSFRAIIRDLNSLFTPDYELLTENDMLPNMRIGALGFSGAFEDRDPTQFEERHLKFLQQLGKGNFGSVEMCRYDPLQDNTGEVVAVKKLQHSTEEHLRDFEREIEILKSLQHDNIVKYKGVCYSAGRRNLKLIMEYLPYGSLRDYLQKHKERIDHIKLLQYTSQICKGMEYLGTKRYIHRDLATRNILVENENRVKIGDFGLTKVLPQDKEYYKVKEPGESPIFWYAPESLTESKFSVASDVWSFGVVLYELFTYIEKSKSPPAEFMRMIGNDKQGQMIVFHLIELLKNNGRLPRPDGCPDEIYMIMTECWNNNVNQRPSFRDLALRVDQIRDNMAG
# [37] = Cmax in Balb/c mouse assessed as 6-((5-Fluoropyridin-2-yl)amino)-4-((2-(methylsulfonyl)phenyl)amino)nicotinamide level at 10 mg/kg, po after 5 hrs; format: ADME, organism-based; parameters: dose 10 mg/kg, route oral; conditions: in vivo
# [38] = Drug concentration in Balb/c mouse at 3 mg/kg, iv after 0.05 hrs; format: ADME, organism-based; conditions: in vivo, read-out: Drug uptake
# [39] = Drug concentration in Balb/c mouse at 3 mg/kg, iv after 0.5 hrs; format: ADME, organism-based; conditions: in vivo, read-out: Drug uptake
# [40] = Volume of distribution at steady state in Balb/c mouse at 3 mg/kg, iv; format: ADME, organism-based; conditions: in vivo, read-out: Vdss
# [41] = Partition coefficient, log P of compound by HPLC analysis; format: physicochemical; conditions: octanol/water
# [42] = Cmax in mouse at 10 mg/kg, po; format: ADME, organism-based; parameters: dose 10 mg/kg, route oral; conditions: in vivo
# [43] = Drug concentration in Balb/c mouse at 10 mg/kg, po after 0.5 hrs; format: ADME, organism-based; conditions: in vivo, read-out: Drug uptake
# [44] = biological target: JAK2/TYK2 (Homo sapiens, UniProt O60674+P29597); assay: Inhibition of TYK2/JAK2 in IL23-stimulated human Kit225 cells by steady-glo luciferase assay
# Chain of JAK2/TYK2 (O60674 whole entry): as the sequence (O60674 whole entry, the tested form may be a part) above
# Chain of JAK2/TYK2 (P29597 whole entry): as the sequence (P29597 whole entry, the tested form may be a part) above
# [45] = Drug concentration in Balb/c mouse at 3 mg/kg, iv after 7 hrs; format: ADME, organism-based; conditions: in vivo, read-out: Drug uptake
# [46] = biological target: T2, Voltage-gated inwardly rectifying potassium channel KCNH2 (Homo sapiens, UniProt Q12809); assay: Inhibition of human ERG by patch clamp assay
# T2 sequence (Q12809 whole entry): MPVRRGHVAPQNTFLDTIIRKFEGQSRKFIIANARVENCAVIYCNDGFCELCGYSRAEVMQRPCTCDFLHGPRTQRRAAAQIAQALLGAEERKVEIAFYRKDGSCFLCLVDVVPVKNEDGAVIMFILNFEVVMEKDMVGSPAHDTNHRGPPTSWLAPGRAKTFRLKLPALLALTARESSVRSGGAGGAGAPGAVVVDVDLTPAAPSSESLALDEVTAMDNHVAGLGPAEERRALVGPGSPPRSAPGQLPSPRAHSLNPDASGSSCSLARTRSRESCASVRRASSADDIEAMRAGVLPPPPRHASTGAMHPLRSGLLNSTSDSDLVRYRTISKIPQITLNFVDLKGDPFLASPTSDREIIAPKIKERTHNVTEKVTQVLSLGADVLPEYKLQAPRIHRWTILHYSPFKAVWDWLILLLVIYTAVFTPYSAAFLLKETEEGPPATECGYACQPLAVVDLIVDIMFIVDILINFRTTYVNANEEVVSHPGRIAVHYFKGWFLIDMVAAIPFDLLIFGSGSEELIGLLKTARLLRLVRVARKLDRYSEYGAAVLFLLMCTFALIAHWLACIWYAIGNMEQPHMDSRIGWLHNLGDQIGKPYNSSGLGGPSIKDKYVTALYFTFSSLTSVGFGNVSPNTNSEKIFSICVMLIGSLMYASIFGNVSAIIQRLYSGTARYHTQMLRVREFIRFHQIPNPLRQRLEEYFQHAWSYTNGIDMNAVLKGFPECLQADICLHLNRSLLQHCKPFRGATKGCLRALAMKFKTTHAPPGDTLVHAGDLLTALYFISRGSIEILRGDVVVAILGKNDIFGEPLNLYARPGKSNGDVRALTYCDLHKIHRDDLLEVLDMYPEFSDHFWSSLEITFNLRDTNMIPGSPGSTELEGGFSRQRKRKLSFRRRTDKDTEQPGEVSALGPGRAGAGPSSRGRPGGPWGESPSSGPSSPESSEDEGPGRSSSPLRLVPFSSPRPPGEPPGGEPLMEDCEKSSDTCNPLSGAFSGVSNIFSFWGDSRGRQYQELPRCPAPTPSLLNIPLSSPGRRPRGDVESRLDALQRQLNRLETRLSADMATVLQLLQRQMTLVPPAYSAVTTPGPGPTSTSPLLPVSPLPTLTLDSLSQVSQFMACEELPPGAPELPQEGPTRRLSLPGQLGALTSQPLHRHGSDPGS
# [47] = AUClast in mouse at 10 mg/kg, po; format: ADME, organism-based; parameters: dose 10 mg/kg, route oral, time 0 - last; conditions: in vivo
# [48] = Cmax in Balb/c mouse assessed as 6-((5-Fluoropyridin-2-yl)amino)-4-((2-(methylsulfonyl)phenyl)amino)nicotinamide level at 3 mg/kg, iv after 0.5 hrs; format: ADME, organism-based; parameters: dose 3 mg/kg, route intravenous; conditions: in vivo
# [49] = Cmax in Balb/c mouse assessed as 6-((5-Fluoropyridin-2-yl)amino)-4-((2-(methylsulfonyl)phenyl)amino)nicotinamide level at 3 mg/kg, iv after 3 hrs; format: ADME, organism-based; parameters: dose 3 mg/kg, route intravenous; conditions: in vivo
# [50] = biological target: T2, Voltage-gated inwardly rectifying potassium channel KCNH2; assay: Inhibition of human ERG by fluorescence polarization assay
# [51] = Permeability across apical to basolateral side in human Caco2 cells; format: ADME, cell-based; conditions: Caco-2, read-out: permeability
# [52] = biological target: JAK2/JAK1 (Homo sapiens, UniProt O60674+P23458); assay: Inhibition of JAK1/JAK2 (unknown origin) in GM-CSF stimulated cells by cell based assay
# [53] = biological target: Non-receptor tyrosine-protein kinase TYK2 (Mus musculus, UniProt Q9R117); assay: Inhibition of TYK2 JH2 domain in mouse whole blood assessed as inhibition of IFNalpha-induced STAT1 phosphorylation preincubated for 1 hr followed by IFNalpha stimulation and measured after 15 mins by fluorescence assay; format: tissue-based
# Chain of Non-receptor tyrosine-protein kinase TYK2 (Mus musculus, UniProt Q9R117) (Q9R117 whole entry, the tested form may be a part): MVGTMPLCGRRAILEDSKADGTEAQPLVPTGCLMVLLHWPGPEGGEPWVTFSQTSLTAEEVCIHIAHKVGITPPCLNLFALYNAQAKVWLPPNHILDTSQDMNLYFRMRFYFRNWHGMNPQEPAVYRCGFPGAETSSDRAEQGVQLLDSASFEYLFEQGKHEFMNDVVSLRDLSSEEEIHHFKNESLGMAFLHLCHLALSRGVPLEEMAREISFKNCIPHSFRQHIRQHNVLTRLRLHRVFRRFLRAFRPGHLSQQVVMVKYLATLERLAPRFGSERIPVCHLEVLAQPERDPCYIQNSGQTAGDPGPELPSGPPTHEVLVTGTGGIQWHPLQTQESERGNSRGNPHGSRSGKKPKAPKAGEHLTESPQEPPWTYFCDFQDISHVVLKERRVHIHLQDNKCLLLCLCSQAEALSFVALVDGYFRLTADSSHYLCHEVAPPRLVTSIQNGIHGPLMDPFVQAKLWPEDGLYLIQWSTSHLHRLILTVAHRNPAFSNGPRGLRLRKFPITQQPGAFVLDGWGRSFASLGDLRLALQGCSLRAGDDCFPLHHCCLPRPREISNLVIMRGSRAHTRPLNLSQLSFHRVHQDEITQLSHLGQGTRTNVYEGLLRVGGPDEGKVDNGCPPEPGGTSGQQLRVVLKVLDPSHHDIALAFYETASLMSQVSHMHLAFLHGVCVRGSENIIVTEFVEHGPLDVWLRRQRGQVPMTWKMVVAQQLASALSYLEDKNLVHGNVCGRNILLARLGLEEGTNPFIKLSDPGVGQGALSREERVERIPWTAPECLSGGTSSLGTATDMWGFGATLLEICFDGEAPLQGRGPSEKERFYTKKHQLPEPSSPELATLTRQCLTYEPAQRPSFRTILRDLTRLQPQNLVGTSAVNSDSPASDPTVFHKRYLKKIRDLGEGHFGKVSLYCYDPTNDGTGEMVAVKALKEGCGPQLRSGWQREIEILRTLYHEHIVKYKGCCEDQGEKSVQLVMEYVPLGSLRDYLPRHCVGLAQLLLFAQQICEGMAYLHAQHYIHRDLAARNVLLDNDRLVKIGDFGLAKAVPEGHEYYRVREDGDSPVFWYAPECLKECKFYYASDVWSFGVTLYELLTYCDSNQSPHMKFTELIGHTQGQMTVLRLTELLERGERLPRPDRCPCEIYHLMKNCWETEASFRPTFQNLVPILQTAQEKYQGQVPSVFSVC
# [54] = Metabolic stability in mouse liver microsomes assessed as parent compound remaining after 10 mins; format: ADME, Microsome; conditions: read-out: Stability
smiles,measurement,setting,value
CNC(=O)c1cnc(Nc2ccc(F)cn2)cc1Nc1ccccc1S(C)(=O)=O,remaining at 10 min,[1],90%
same,AUClast,[2],0.2 µM·h
same,Cmax,[3],84 nM
same,Cmax,[4],41 nM
same,concentration at 5 h,[5],440 nM
same,AUC(0-t),[6],8.1 µM·h
same,bioavailability,[7],35%
same,Cmax,[8],51 nM
same,Cmax,[9],9.8 nM
same,clearance,[10],15 mL/min/kg
same,Cmax,[11],28 nM
same,AUC(0-t),[12],7 µM·h
same,IC50,[13],> 50000 nM
same,efflux ratio,[14],10
same,IC50,[15],4200 nM
same,IC50,[16],> 50000 nM
same,Cmax,[17],14 nM
same,remaining at 10 min,[18],85%
same,concentration at 1 h,[19],2100 nM
same,IC50,[20],0.92 nM
same,concentration at 7 h,[21],450 nM
same,Cmax,[22],24 nM
same,half-life,[23],3 h
same,concentration at 0.05 h,[24],780 nM
same,IC50,[25],180 nM
same,concentration at 3 h,[26],530 nM
same,IC50,[27],100 nM
same,concentration at 5 h,[28],1400 nM
same,Cmax,[29],21 nM
same,concentration at 3 h,[30],1500 nM
same,concentration at 1 h,[31],1600 nM
same,IC50,[32],63 nM
same,Cmax,[33],54 nM
same,IC50,[34],> 12500 nM
same,AUClast,[35],0.36 µM·h
same,IC50,[36],> 50000 nM
same,Cmax,[37],47 nM
same,concentration at 0.05 h,[38],3500 nM
same,concentration at 0.5 h,[39],2100 nM
same,Vd,[40],2.8 L/kg
same,logP,[41],2.61
same,Cmax,[42],1620 nM
same,concentration at 0.5 h,[43],1400 nM
same,IC50,[44],63 nM
same,concentration at 7 h,[45],190 nM
same,IC50,[46],2500 nM
same,AUC(0-t),[47],9.83 µM·h
same,Cmax,[48],110 nM
same,Cmax,[49],33 nM
same,IC50,[50],25000 nM
same,Papp A→B,[51],4.8 ×10⁻⁶ cm/s
same,IC50,[52],> 12500 nM
same,IC50,[53],450 nM
same,remaining at 10 min,[54],87%

# Reference: ChEMBL document CHEMBL4414548 (J Med Chem, 2019)
